Laboratory results reported in PubChem BioAssay AID1963873 (Molecular Pharmacology Branch, DTP, NCI, 2024).
Several values for one entry are separate records, joined by “and”; a condition that tells them apart may be missing. Identical values can stand only once.

Test system: 276233-004-R-J1-PDC KRAS spheroids with HUVEC/MSC, viability
Test: Anticancer human tumor 276233-004-R-J1-PDC patient-derived colon adenocarcinoma cell line growth inhibition [KRAS2]
Details: for viability, T/C: stronger effect = lower value; active means viability on the fitted dose curve at most 10% of control; inactive means the rest
Procedure, shortened: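 KRAS-mutant tumor cells were grown as spheroids with HUVEC endothelial cells and human MSCs as stroma. Targeted agents were tested alone and with KRAS pathway inhibitors. Doses started at or near clinical Cmax, or 10 microM, descending half-log.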

[1] = curve of first compound, second compound 0.0316 µM
[2] = curve of first compound, second compound 0.1 µM
[3] = curve of first compound, second compound 0.316 µM
[4] = curve of first compound, second compound 1 µM
[5] = curve of first compound, second compound 3.16 µM
[6] = second compound 0.0316 µM, first compound 0.0316 µM
[7] = second compound 0.0316 µM, first compound 0.1 µM
[8] = second compound 0.0316 µM, first compound 0.316 µM
[9] = second compound 0.0316 µM, first compound 1 µM
[10] = second compound 0.0316 µM, first compound 3.16 µM
[11] = second compound 0.0316 µM, first compound 10 µM
[12] = second compound 0.1 µM, first compound 0.0316 µM
[13] = second compound 0.1 µM, first compound 0.1 µM
[14] = second compound 0.1 µM, first compound 0.316 µM
[15] = second compound 0.1 µM, first compound 1 µM
[16] = second compound 0.1 µM, first compound 3.16 µM
[17] = second compound 0.1 µM, first compound 10 µM
[18] = second compound 0.316 µM, first compound 0.0316 µM
[19] = second compound 0.316 µM, first compound 0.1 µM
[20] = second compound 0.316 µM, first compound 0.316 µM
[21] = second compound 0.316 µM, first compound 1 µM
[22] = second compound 0.316 µM, first compound 3.16 µM
[23] = second compound 0.316 µM, first compound 10 µM
[24] = second compound 1 µM, first compound 0.0316 µM
[25] = second compound 1 µM, first compound 0.1 µM
[26] = second compound 1 µM, first compound 0.316 µM
[27] = second compound 1 µM, first compound 1 µM
[28] = second compound 1 µM, first compound 3.16 µM
[29] = second compound 1 µM, first compound 10 µM
[30] = second compound 3.16 µM, first compound 0.0316 µM
[31] = second compound 3.16 µM, first compound 0.1 µM
[32] = second compound 3.16 µM, first compound 0.316 µM
[33] = second compound 3.16 µM, first compound 1 µM
[34] = second compound 3.16 µM, first compound 3.16 µM
[35] = second compound 3.16 µM, first compound 10 µM
[36] = curve of first compound, second compound 10 µM
[37] = second compound 0.1 µM, first compound 0.00316 µM
[38] = second compound 0.1 µM, first compound 0.01 µM
[39] = second compound 0.316 µM, first compound 0.00316 µM
[40] = second compound 0.316 µM, first compound 0.01 µM
[41] = second compound 1 µM, first compound 0.00316 µM
[42] = second compound 1 µM, first compound 0.01 µM
[43] = second compound 3.16 µM, first compound 0.00316 µM
[44] = second compound 3.16 µM, first compound 0.01 µM
[45] = second compound 10 µM, first compound 0.00316 µM
[46] = second compound 10 µM, first compound 0.01 µM
[47] = second compound 10 µM, first compound 0.0316 µM
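Further: cells exposed to agents for seven days before viability read.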
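Wherever viability, T/C is given: 100% = DMSO vehicle control wells and lower values mean fewer viable cells.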

Cn1nccc1Nc1nccc(-c2cc3c(s2)C(C)(C)N(CCN2CCOCC2)C3=O)n1 + C=CC(=O)N1CCN(c2nc(OCC3CCCN3C)nc3c2CCN(c2cccc4cccc(C)c24)C3)CC1CC#N
4830 nM: IC50 [1]
236 nM: IC50 [5]
inactive: viability, T/C [6] 99.8% | viability, T/C [7] 108% | viability, T/C [8] 86.1% | viability, T/C [9] 75.9% | viability, T/C [10] 51.7% | viability, T/C [11] 44.5% | viability, T/C [12] 100% | viability, T/C [13] 99.3% | viability, T/C [14] 79.7% | viability, T/C [15] 75.7% | viability, T/C [16] 51.7% | viability, T/C [17] 52.2% | viability, T/C [18] 109% | viability, T/C [19] 98% | viability, T/C [20] 101% | viability, T/C [21] 77.8% | viability, T/C [22] 56.4% | viability, T/C [23] 57.4% | viability, T/C [24] 101% | viability, T/C [25] 109% | viability, T/C [26] 87.2% | viability, T/C [27] 77% | viability, T/C [28] 55.3% | viability, T/C [29] 65.9% | viability, T/C [30] 68.7% | viability, T/C [31] 46.7% | viability, T/C [32] 46.7% | viability, T/C [33] 47.5% | viability, T/C [34] 21.2% | viability, T/C [35] 10.9%
> 10000 nM: IC50 [2] | IC50 [3] | IC50 [4]

CNCc1ccccc1-c1csc(C(C)Nc2nc(C)nc3cc(OC)c(OC)cc23)c1 (stereo unspecified)
1.67 µM [middle of 5 runs]: IC50 (compound alone, run of 07/26/2021)
1.25 µM [middle of 4 runs]: IC50 (compound alone, run of 07/19/2021)
active: viability, T/C (compound 10 µM) 1.13% [middle of 15 runs]

CC1COCCN1c1cc(-c2ccnn2C)c2ccnc(-c3ccn[nH]3)c2n1 (stereo unspecified)
> 3160 nM and 735 nM: IC50 (curve of compound)
inactive: viability, T/C (compound 0.01 µM) 96.2% [middle of 5 runs] | viability, T/C (compound 0.1 µM) 82% [middle of 5 runs]

CCN1CCN(Cc2ccc(Nc3ncc(F)c(-c4cc(F)c5nc(C)n(C(C)C)c5c4)n3)nc2)CC1 + COc1cc2nc(C)nc(NC(C)c3cc(N)cc(C(F)(F)F)c3)c2cc1OC1CCOC1
> 1000 nM: IC50 [2] | IC50 [3] | IC50 [4] | IC50 [5]
inactive: viability, T/C [37] 89.2% | viability, T/C [38] 98.1% | viability, T/C [12] 88.7% | viability, T/C [13] 84.5% | viability, T/C [14] 91.5% | viability, T/C [15] 115% | viability, T/C [39] 110% | viability, T/C [40] 80.9% | viability, T/C [18] 82.4% | viability, T/C [19] 107% | viability, T/C [20] 98.8% | viability, T/C [21] 86.8% | viability, T/C [41] 105% | viability, T/C [42] 88% | viability, T/C [24] 101% | viability, T/C [25] 80.2% | viability, T/C [26] 96.9% | viability, T/C [27] 102% | viability, T/C [43] 82.2% | viability, T/C [44] 96.5% | viability, T/C [30] 74.1% | viability, T/C [31] 81.1% | viability, T/C [32] 89.4% | viability, T/C [33] 74.3% | viability, T/C [45] 47.1% | viability, T/C [46] 44.4% | viability, T/C [47] 26% | viability, T/C (second compound 10 µM, first compound 0.1 µM) 19.7%
< 3.16 nM: IC50 [36]
active: viability, T/C (second compound 10 µM, first compound 0.316 µM) 4.33% | viability, T/C (second compound 10 µM, first compound 1 µM) 2.22%

CCN1CCN(Cc2ccc(Nc3ncc(F)c(-c4cc(F)c5nc(C)n(C(C)C)c5c4)n3)nc2)CC1 + C=CC(=O)N1CCN(c2nc(OCC3CCCN3C)nc3c2CCN(c2cccc4cccc(C)c24)C3)CC1CC#N
> 1000 nM: IC50 [1] | IC50 [2] | IC50 [3] | IC50 [4]
inactive: viability, T/C (second compound 0.0316 µM, first compound 0.00316 µM) 102% | viability, T/C (second compound 0.0316 µM, first compound 0.01 µM) 87% | viability, T/C [6] 87.1% | viability, T/C [7] 69.2% | viability, T/C [8] 95.5% | viability, T/C [9] 112% | viability, T/C [37] 109% | viability, T/C [38] 86.4% | viability, T/C [12] 86% | viability, T/C [13] 81% | viability, T/C [14] 97% | viability, T/C [15] 96.4% | viability, T/C [39] 95.1% | viability, T/C [40] 83.7% | viability, T/C [18] 77.4% | viability, T/C [19] 86% | viability, T/C [20] 78% | viability, T/C [21] 90.7% | viability, T/C [41] 81.4% | viability, T/C [42] 83.7% | viability, T/C [24] 96.5% | viability, T/C [25] 87.4% | viability, T/C [26] 66.2% | viability, T/C [27] 110% | viability, T/C [43] 56.5% | viability, T/C [44] 65.8% | viability, T/C [30] 65.9% | viability, T/C [31] 39.6% | viability, T/C [32] 43.5% | viability, T/C [33] 26.5%
59.6 nM: IC50 [5]

COc1cc(Nc2ncc3c(n2)-c2ccc(Cl)cc2C(c2c(F)cccc2OC)=NC3)ccc1C(=O)O + C=CC(=O)N1CCN(c2nc(OCC3CCCN3C)nc3c2CCN(c2cccc4cccc(C)c24)C3)CC1CC#N
> 10000 nM: IC50 [1] | IC50 [2] | IC50 [3] | IC50 [4]
inactive: viability, T/C [6] 98.9% | viability, T/C [7] 85.5% | viability, T/C [8] 89.2% | viability, T/C [9] 86.2% | viability, T/C [10] 77.9% | viability, T/C [11] 77% | viability, T/C [12] 85.9% | viability, T/C [13] 91.1% | viability, T/C [14] 82.2% | viability, T/C [15] 73.6% | viability, T/C [16] 83.3% | viability, T/C [17] 81% | viability, T/C [18] 94.5% | viability, T/C [19] 79% | viability, T/C [20] 70.9% | viability, T/C [21] 67.8% | viability, T/C [22] 83.1% | viability, T/C [23] 63.9% | viability, T/C [24] 79.8% | viability, T/C [25] 81.3% | viability, T/C [26] 94.9% | viability, T/C [27] 96.9% | viability, T/C [28] 67.2% | viability, T/C [29] 70.5% | viability, T/C [30] 45.9% | viability, T/C [31] 64% | viability, T/C [32] 55.7% | viability, T/C [33] 54.1% | viability, T/C [34] 47.4% | viability, T/C [35] 26.9%
2120 nM: IC50 [5]

CC(=O)Nc1cccc(-n2c(=O)n(C3CC3)c(=O)c3c(Nc4ccc(I)cc4F)n(C)c(=O)c(C)c32)c1 + CC1OCC2(CCN(c3cnc(Sc4ccnc(N)c4Cl)c(N)n3)CC2)C1N
4.28 nM: IC50 [2]
0.405 nM: IC50 [4]
< 0.1 nM: IC50 [5] | IC50 [36]
active: viability, T/C [24] 7.28% | viability, T/C [44] 9.04% | viability, T/C [30] 5.79%
inactive: viability, T/C (second compound 0.1 µM, first compound 0.0001 µM) 78.4% | viability, T/C (second compound 0.1 µM, first compound 0.000316 µM) 87.2% | viability, T/C (second compound 0.1 µM, first compound 0.001 µM) 65.8% | viability, T/C [37] 55.5% | viability, T/C [38] 35.6% | viability, T/C [12] 13.1% | viability, T/C (second compound 0.316 µM, first compound 0.0001 µM) 67% | viability, T/C (second compound 0.316 µM, first compound 0.000316 µM) 74.1% | viability, T/C (second compound 0.316 µM, first compound 0.001 µM) 61% | viability, T/C [39] 45.5% | viability, T/C [40] 28% | viability, T/C [18] 13.5% | viability, T/C (second compound 1 µM, first compound 0.0001 µM) 57.4% | viability, T/C (second compound 1 µM, first compound 0.000316 µM) 55.4% | viability, T/C (second compound 1 µM, first compound 0.001 µM) 42.6% | viability, T/C [41] 28.4% | viability, T/C [42] 27.4% | viability, T/C (second compound 3.16 µM, first compound 0.0001 µM) 39.7% | viability, T/C (second compound 3.16 µM, first compound 0.000316 µM) 31.9% | viability, T/C (second compound 3.16 µM, first compound 0.001 µM) 23.3% | viability, T/C [43] 12.7% | viability, T/C (second compound 10 µM, first compound 0.0001 µM) 31.4% | viability, T/C (second compound 10 µM, first compound 0.000316 µM) 23.7% | viability, T/C (second compound 10 µM, first compound 0.001 µM) 14.7% | viability, T/C [45] 10.9% | viability, T/C [46] 17.6% | viability, T/C [47] 8.53%
2.46 nM: IC50 [3]
